From the Kinase Knowledgebase extract (Sharma et al. 2016)

Biological target: CDK2 (UniProt P24941)
Assay: Enzyme Assay
Settings: for inhibition: concentration not given here

| SMILES | inhibition | Ki |
| --- | --- | --- |
| CC(C)C[C@@H](CO)NC(=O)c1ccc(Nc2nc(N)c(C(=O)c3c(F)cccc3F)s2)cc1 | -16% | – |
| CN(Cc1ccncc1)C(=O)c1ccc(Nc2nc(N)c(C(=O)c3c(F)cccc3F)s2)cc1 | 1% | – |
| COC(=O)c1ccccc1NC(=O)c1ccc(Nc2nc(N)c(C(=O)c3c(F)cccc3F)s2)cc1 | -4% | – |
| CC[C@H](C)[C@@H](CO)NC(=O)c1ccc(Nc2nc(N)c(C(=O)c3c(F)cccc3F)s2)cc1 | -7% | – |
| CCOC(=O)c1ccc(NC(=O)c2ccc(Nc3nc(N)c(C(=O)c4c(F)cccc4F)s3)cc2)cc1 | 1% | – |
| CCOc1cccc(NC(=O)c2ccc(Nc3nc(N)c(C(=O)c4c(F)cccc4F)s3)cc2)c1 | -7% | – |
| CCOCCNC(=O)c1ccc(Nc2nc(N)c(C(=O)c3c(F)cccc3F)s2)cc1 | -4% | – |
| CCC(C)CN(CCO)C(=O)c1ccc(Nc2nc(N)c(C(=O)c3c(F)cccc3F)s2)cc1 (stereo not given) | -11% | – |
| CCCCN(CC#N)C(=O)c1ccc(Nc2nc(N)c(C(=O)c3c(F)cccc3F)s2)cc1 | -1% | – |
| CC(CNC(=O)c1ccc(Nc2nc(N)c(C(=O)c3c(F)cccc3F)s2)cc1)N(C)C (stereo not given) | -7% | – |
| Nc1nc(Nc2ccc(C(=O)NCC(O)CO)cc2)sc1C(=O)c1c(F)cccc1F (stereo not given) | -2% | – |
| Nc1nc(Nc2ccc(C(=O)N3CCCC3)cc2)sc1C(=O)c1c(F)cccc1F | -15% | – |
| CC(=O)c1ccc(NC(=O)c2ccc(Nc3nc(N)c(C(=O)c4c(F)cccc4F)s3)cc2)cc1 | -5% | – |
| CCN(C)C(=O)c1ccc(Nc2nc(N)c(C(=O)c3c(F)cccc3F)s2)cc1 | -12% | – |
| C[C@H](CN(C)C)N(C)C(=O)c1ccc(Nc2nc(N)c(C(=O)c3c(F)cccc3F)s2)cc1 | – | 111 nM |
| Cc1ccc(CCNC(=O)c2ccc(Nc3nc(N)c(C(=O)c4c(F)cccc4F)s3)cc2)cc1 | 14% | – |
| Cc1cccc(NC(=O)c2ccc(Nc3nc(N)c(C(=O)c4c(F)cccc4F)s3)cc2)c1 | -7% | – |
| COc1ccc(CCN(C)C(=O)c2ccc(Nc3nc(N)c(C(=O)c4c(F)cccc4F)s3)cc2)cc1OC | -3% | – |
| CCCCN(Cc1ccccc1)C(=O)c1ccc(Nc2nc(N)c(C(=O)c3c(F)cccc3F)s2)cc1 | -17% | – |

| SMILES | inhibition | Ki |
| --- | --- | --- |
| Nc1nc(Nc2ccc(C(=O)Nc3cccc(OC(F)(F)F)c3)cc2)sc1C(=O)c1c(F)cccc1F | -31% | – |
| CCCCN(CCO)C(=O)c1ccc(Nc2nc(N)c(C(=O)c3c(F)cccc3F)s2)cc1 | -7% | – |
| Nc1nc(Nc2ccc(C(=O)NCCCN3CCCC3=O)cc2)sc1C(=O)c1c(F)cccc1F | -23% | – |
| Cn1cccc1CNC(=O)c1ccc(Nc2nc(N)c(C(=O)c3c(F)cccc3F)s2)cc1 | – | 20 nM |
| CC1CC(NC(=O)c2ccc(Nc3nc(N)c(C(=O)c4c(F)cccc4F)s3)cc2)CC(C)(C)C1 (stereo not given) | -11% | – |
| COc1ccc(C(=O)NC(=O)c2ccc(Nc3nc(N)c(C(=O)c4c(F)cccc4F)s3)cc2)cc1N | 15% | – |
| Nc1nc(Nc2ccc(C(=O)N3CCN(CCO)CC3)cc2)sc1C(=O)c1c(F)cccc1F | -43% | – |
| C#CCN(C)C(=O)c1ccc(Nc2nc(N)c(C(=O)c3c(F)cccc3F)s2)cc1 | -14% | – |
| CCN(CC)CCN1CCN(C(=O)c2ccc(Nc3nc(N)c(C(=O)c4c(F)cccc4F)s3)cc2)CC1 | -10% | – |
| Nc1nc(Nc2ccc(C(=O)NC3CC3)cc2)sc1C(=O)c1c(F)cccc1F | -5% | – |
| Nc1nc(Nc2ccc(C(=O)NCCC3OCCO3)cc2)sc1C(=O)c1c(F)cccc1F | -10% | – |
| Nc1nc(Nc2ccc(C(=O)Nc3ccc(Nc4ccccc4)cc3)cc2)sc1C(=O)c1c(F)cccc1F | -6% | – |
| CC(C)C(CO)NC(=O)c1ccc(Nc2nc(N)c(C(=O)c3c(F)cccc3F)s2)cc1 (stereo not given) | -3% | – |
| CN(C)CCCCNC(=O)c1ccc(Nc2nc(N)c(C(=O)c3c(F)cccc3F)s2)cc1 | -4% | – |
| CN(Cc1ccccc1Cl)C(=O)c1ccc(Nc2nc(N)c(C(=O)c3c(F)cccc3F)s2)cc1 | -30% | – |
| COCCN(CCOC)C(=O)c1ccc(Nc2nc(N)c(C(=O)c3c(F)cccc3F)s2)cc1 | -4% | – |
| CCCN(CCC#N)C(=O)c1ccc(Nc2nc(N)c(C(=O)c3c(F)cccc3F)s2)cc1 | -12% | – |
| CC1CN(C(=O)c2ccc(Nc3nc(N)c(C(=O)c4c(F)cccc4F)s3)cc2)CC(C)O1 (stereo not given) | -10% | – |
| CN(Cc1ccccc1)C(=O)c1ccc(Nc2nc(N)c(C(=O)c3c(F)cccc3F)s2)cc1 | -1% | – |

| SMILES | inhibition | Ki |
| --- | --- | --- |
| C=C(C)CN(C)C(=O)c1ccc(Nc2nc(N)c(C(=O)c3c(F)cccc3F)s2)cc1 | -2% | – |
| Nc1nc(Nc2ccc(C(=O)N[C@H](CO)Cc3ccccc3)cc2)sc1C(=O)c1c(F)cccc1F | -14% | – |
| COCCCNC(=O)c1ccc(Nc2nc(N)c(C(=O)c3c(F)cccc3F)s2)cc1 | -24% | – |
| Nc1nc(Nc2ccc(C(=O)NCCc3cccc(F)c3)cc2)sc1C(=O)c1c(F)cccc1F | -6% | – |
| CC(C)N(Cc1ccccc1)c1ccc(NC(=O)c2ccc(Nc3nc(N)c(C(=O)c4c(F)cccc4F)s3)cc2)cc1 | -4% | – |
| Cc1ccc(NC(=O)c2ccc(Nc3nc(N)c(C(=O)c4c(F)cccc4F)s3)cc2)c(F)c1 | -30% | – |
| CC1CC(C)CN(C(=O)c2ccc(Nc3nc(N)c(C(=O)c4c(F)cccc4F)s3)cc2)C1 (stereo not given) | -33% | – |
| CC(=O)N(C)C1CCN(C(=O)c2ccc(Nc3nc(N)c(C(=O)c4c(F)cccc4F)s3)cc2)C1 (stereo not given) | -21% | – |
| Nc1nc(Nc2ccc(C(=O)NCCc3c(Cl)cccc3Cl)cc2)sc1C(=O)c1c(F)cccc1F | -21% | – |
| Nc1nc(Nc2ccc(C(=O)N3CCN(c4ccncc4)CC3)cc2)sc1C(=O)c1c(F)cccc1F | -1% | – |
| C=CCN(C(=O)c1ccc(Nc2nc(N)c(C(=O)c3c(F)cccc3F)s2)cc1)C1CCCCC1 | -15% | – |
| COc1ccc(OC)c(CCNC(=O)c2ccc(Nc3nc(N)c(C(=O)c4c(F)cccc4F)s3)cc2)c1 | -5% | – |
| CCN(C(=O)c1ccc(Nc2nc(N)c(C(=O)c3c(F)cccc3F)s2)cc1)C1CCCCC1 | -10% | – |
| CCN(CC)CCCN(C)C(=O)c1ccc(Nc2nc(N)c(C(=O)c3c(F)cccc3F)s2)cc1 | -27% | – |
| Cc1nccc(-c2cccc(NC(=O)c3ccc(Nc4nc(N)c(C(=O)c5c(F)cccc5F)s4)cc3)c2)n1 | -40% | – |
| Nc1nc(Nc2ccc(C(=O)N(CCCCO)Cc3ccccc3)cc2)sc1C(=O)c1c(F)cccc1F | 0% | – |
| Nc1nc(Nc2ccc(C(=O)NCCCCCCO)cc2)sc1C(=O)c1c(F)cccc1F | -5% | – |
| Cc1cc(C)cc(NC(=O)c2ccc(Nc3nc(N)c(C(=O)c4c(F)cccc4F)s3)cc2)c1 | -3% | – |
| CCCN(CC1CC1)C(=O)c1ccc(Nc2nc(N)c(C(=O)c3c(F)cccc3F)s2)cc1 | -3% | – |

Results, then the molecule that gave them:

| inhibition | Ki | SMILES |
| --- | --- | --- |
| -3% | – | CN(Cc1ccco1)C(=O)c1ccc(Nc2nc(N)c(C(=O)c3c(F)cccc3F)s2)cc1 |
| -19% | – | CCOc1ccccc1CCNC(=O)c1ccc(Nc2nc(N)c(C(=O)c3c(F)cccc3F)s2)cc1 |
| -1% | – | Cc1cc(NC(=O)c2ccc(Nc3nc(N)c(C(=O)c4c(F)cccc4F)s3)cc2)ccc1F |
| -30% | – | CCCCC(CC)NC(=O)c1ccc(Nc2nc(N)c(C(=O)c3c(F)cccc3F)s2)cc1 (stereo not given) |
| -12% | – | CCCN(CCc1ccccn1)C(=O)c1ccc(Nc2nc(N)c(C(=O)c3c(F)cccc3F)s2)cc1 |
| -16% | – | CN(C)CCCCCCNC(=O)c1ccc(Nc2nc(N)c(C(=O)c3c(F)cccc3F)s2)cc1 |
| 19% | – | Nc1nc(Nc2ccc(CCO)cc2)sc1C(=O)c1c(F)cccc1F |
| 0% | – | Nc1nc(Nc2ccc(C(=O)NCCc3ccc(Cl)cc3)cc2)sc1C(=O)c1c(F)cccc1F |
| -5% | – | N#CCCN(CC1CCCO1)C(=O)c1ccc(Nc2nc(N)c(C(=O)c3c(F)cccc3F)s2)cc1 (stereo not given) |
| 23% | – | Nc1nc(Nc2ccc(O)cc2)sc1C(=O)c1c(F)cccc1F |
| -14% | – | Nc1nc(Nc2ccc(C(=O)N3CCC(CO)CC3)cc2)sc1C(=O)c1c(F)cccc1F |
| -23% | – | CC(C)(C)C1CCC(NC(=O)c2ccc(Nc3nc(N)c(C(=O)c4c(F)cccc4F)s3)cc2)CC1 (stereo not given) |
| -10% | – | Nc1nc(Nc2ccc(C(=O)Nc3ccc(Cl)cc3)cc2)sc1C(=O)c1c(F)cccc1F |
| -1% | – | Nc1nc(Nc2ccc(C(=O)Nc3ccon3)cc2)sc1C(=O)c1c(F)cccc1F |
| -3% | – | CCOC(=O)/C=C/c1ccc(Nc2nc(N)c(C(=O)c3c(F)cccc3F)s2)cc1 |
| 1% | – | C#CCc1ccc(NC(=O)c2ccc(Nc3nc(N)c(C(=O)c4c(F)cccc4F)s3)cc2)cc1 |
| -2% | – | CN(C(=O)c1ccc(Nc2nc(N)c(C(=O)c3c(F)cccc3F)s2)cc1)C1CCCCC1 |

| inhibition | Ki | SMILES |
| --- | --- | --- |
| -14% | – | Nc1nc(Nc2ccc(C(=O)N3CCN(CCCO)CC3)cc2)sc1C(=O)c1c(F)cccc1F |
| 0% | – | CN(CC(O)CO)C(=O)c1ccc(Nc2nc(N)c(C(=O)c3c(F)cccc3F)s2)cc1 (stereo not given) |
| 0% | – | CC(C)CCCC(C)NC(=O)c1ccc(Nc2nc(N)c(C(=O)c3c(F)cccc3F)s2)cc1 (stereo not given) |
| -2% | – | COCC(C)NC(=O)c1ccc(Nc2nc(N)c(C(=O)c3c(F)cccc3F)s2)cc1 (stereo not given) |
| -9% | – | Nc1nc(Nc2ccc(C(=O)Nc3ccc(Cl)nc3)cc2)sc1C(=O)c1c(F)cccc1F |
| -18% | – | C[C@@H](NC(=O)c1ccc(Nc2nc(N)c(C(=O)c3c(F)cccc3F)s2)cc1)C1CCCCC1 |
| -12% | – | CN(CCc1ccccc1)C(=O)c1ccc(Nc2nc(N)c(C(=O)c3c(F)cccc3F)s2)cc1 |
| 0% | – | CC(=O)Nc1ccccc1C(=O)c1sc(Nc2ccc(C(=O)NC[C@@H]3CCCN3C)cc2)nc1N |
| -16% | – | CCN(CCO)C(=O)c1ccc(Nc2nc(N)c(C(=O)c3c(F)cccc3F)s2)cc1 |
| -1% | – | NC(=O)c1cccc(NC(=O)c2ccc(Nc3nc(N)c(C(=O)c4c(F)cccc4F)s3)cc2)c1 |
| -7% | – | Nc1nc(Nc2ccc(C(=O)N[C@H](CO)CC3CCCCC3)cc2)sc1C(=O)c1c(F)cccc1F |
| -4% | – | Nc1nc(Nc2ccc(C(=O)NCCCCCO)cc2)sc1C(=O)c1c(F)cccc1F |
| -12% | – | Cc1cccc(Cl)c1NC(=O)c1ccc(Nc2nc(N)c(C(=O)c3c(F)cccc3F)s2)cc1 |
| -25% | – | CSc1ccc(NC(=O)c2ccc(Nc3nc(N)c(C(=O)c4c(F)cccc4F)s3)cc2)cc1 |
| -9% | – | Nc1nc(Nc2ccc(C(=O)NCCOCCO)cc2)sc1C(=O)c1c(F)cccc1F |
| -12% | – | CC(C)c1cccc(NC(=O)c2ccc(Nc3nc(N)c(C(=O)c4c(F)cccc4F)s3)cc2)c1 |
